{
  "source": "patent US5137918A",
  "about": "“N-(2'-aminophenyl)-benzamide derivatives process for the preparation thereof and pharmaceutical compositions containing them” (priority 1986, dated 1992)",
  "key": {"[1]": {"tested_on": "mammary adenocarcinoma 16C tumor cells", "assay": "Mamma Adenocarcinoma 16C Cytotoxicity Assay", "format": "cell-based", "details": "ID50 ≤250 μg/mL assessed as cytostatically active", "method": "(§1) 4-Acetamino-N-(2'-aminophenyl) benzamide was used as an example of a compound according to the present invention and compared with […] as standard, the outstanding inhibition action of which against various experimental tumors in vitro and in vivo is known. The testing was carried out in vivo with SD-rats against MNU-induced mammary adenocarcinoma and acetoxymethylmethylnitrosamine-induced (AMMN-induced) colon adenocarcinoma. The testing was carried out in vitro in the \"colorimetric-cytotoxicity assay\" using L1210 and mammary adenocarcinoma 16C tumor cells. In this test system, substances with ID50 values of ≤250 μg/mL are assessed as being cytostatically active."}, "L1210 tumor cells": {"tested_on": "L1210 tumor cells", "assay": "L1210 Colorimetric Cytotoxicity Assay", "format": "cell-based", "details": "for IC50: Mus musculus, L1210, ID50 ≤250 μg/mL assessed as cytostatically active", "method": "as §1"}, "[2]": {"assay": "Acute intragastral toxicity (LD50), 7-day observation", "format": "in vivo", "details": "male mice"}, "[3]": {"assay": "Pharmacokinetic experiments on rats (plasma level, AUC, half-life, bioavailability)", "format": "in vivo", "method": "FIG. 1 is the AUC, rat, after administration of 4-acetamino-N-(2'-aminophenyl)benzamide. The * is intragastral administration (2 mg/kg; 10 mg/kg; 50 mg/kg). The * is intravenous administration (10 mg/kg).\nIn FIG. 2 the average plasma level of 4-amino-N-(2'-aminophenyl)-benzamide in rats after single administration of 10 mg/kg intragastrally (n=4).\nThe bioavailability of the active material according to the present invention is 100%. […] This is shown graphically in FIG. 1 of the accompanying drawings."}, "[4]": {"tested_on": "methylnitrosurea-induced (MNU-induced) mammary adenocarcinoma", "assay": "MNU-induced mammary adenocarcinoma in SD rats", "format": "in vivo, female SD rats", "method": "FIGS. 5 and 6 show the antineoplastic effect of compounds A, B, C at equimolar doses (33 μmol/kg/day); is control; Δ is compound C (8.0 mg/kg), .smallcircle. is compound B (7.5 mg/kg), and .quadrature. is compound A (8.9 mg/kg).\nas §1\nThe in vivo activity of 4-acetamino-N-(2'-aminophenyl)-benzamide was tested against primary mammary adenocarcinoma induced by 3 single IV administrations of methylnitrosurea on Days 50, 71, and 92 following birth in female SD rats. As soon as tumor volumes ≥0.8 cm^3 were reached, test animals were randomized and therapy was started. […] Median tumor volumes and numbers were determined weekly and compared with untreated controls."}, "[5]": {"tested_on": "acetoxymethylmethylnitrosamine-induced (AMMN-induced) colon adenocarcinoma", "assay": "AMMN-induced colon adenocarcinoma in SD rats", "format": "in vivo, Male SD-rats", "details": "for antineoplastic effect (in words): 10-week treatment, 5 days per week", "method": "as §1\nThe activity of the compounds A, B, and C was tested in vivo against AMMN-induced colon adenocarcinoma. Male SD-rats were given 2 mg/kg/week acetoxymethylmethylnitrosamine (AMMN) intrarectally for a period of 10 weeks for tumor induction. Animals with manifest tumors were assigned randomly to the test groups.\n^a Application via gastric tube, 5 days per week\nThe animals were examined twice daily. After the 10-week treatment period, the animals were sacrificed and a total necropsy performed. All tumors were individually measured and their volumes added to a total tumor volume."}},
  "note": "Entries after “also recorded” stand apart in the source; their conditions may differ.",
  "data": [
    {"smiles": "Nc1ccccc1NC(=O)c1ccc(NC(=O)CO)cc1", "note": "[4-Glycoloylamino-N-(2'-aminophenyl)-benzamide]", "values": [
      {"measurement": "IC50", "setting": "[1]", "value": 0.62, "unit": "µg/mL"}
    ]},
    {"smiles": "Nc1ccccc1NC(=O)c1ccc(NC=O)cc1", "note": "[4-Formylamino-N-(2'-aminophenyl)-benzamide]", "values": [
      {"measurement": "IC50", "setting": "[1]", "value": 0.4, "unit": "µg/mL"}
    ]},
    {"smiles": "CC(C)C(=O)Nc1ccc(C(=O)Nc2ccccc2N)cc1", "note": "[4-isobutyrylamino-N-(2'-aminophenyl)-benzamide]", "values": [
      {"measurement": "IC50", "setting": "[1]", "value": 0.32, "unit": "µg/mL"}
    ]},
    {"smiles": "Nc1ccccc1NC(=O)c1ccc(NC(=O)CCO)cc1", "note": "[4-(β-hydroxypropionylamino)-N-(2'-aminophenyl)-benzamide]", "values": [
      {"measurement": "IC50", "setting": "[1]", "value": 0.77, "unit": "µg/mL"}
    ]},
    {"smiles": "CC(=O)Nc1ccc(C(=O)Nc2ccccc2N)cc1", "note": "[Compound A, 4-Acetamino-N-(2'-aminophenyl)-benzamide]", "values": [
      {"measurement": "IC50", "setting": "L1210 tumor cells", "value": 3.75, "unit": "µg/mL"},
      {"measurement": "cytostatic activity (in words)", "setting": "L1210 tumor cells; Table 1: L1210 and mammary adenocarcinoma 16C, versus comparison standard", "value": "acts outstandingly cytostatically; also recorded: about the same or better as that of the comparison standard"},
      {"measurement": "IC50", "setting": "[1]", "value": 0.73, "unit": "µg/mL"},
      {"measurement": "acute toxicity versus comparison standard (in words)", "setting": "[2]; acute intragastral administration", "value": "considerably less toxic"},
      {"measurement": "LD50 at 168 h", "setting": "[2]; mouse, in vivo, po, acute intragastral, n=4, 7-day observation", "value": 1600, "unit": "mg/kg"},
      {"measurement": "half-life", "setting": "[3]; rat, in vivo", "value": "4.2 to 4.5", "unit": "h"},
      {"measurement": "half-life time versus standard (in words)", "setting": "[3]; rat, in vivo", "value": "longer half-life time"},
      {"measurement": "bioavailability", "setting": "[3]; rat, in vivo, po, 10 mg/kg", "value": 100, "unit": "%"},
      {"measurement": "intestinal resorption (in words)", "setting": "[3]; rats", "value": "quickly, completely, and dosage-linearly"},
      {"measurement": "antineoplastic effect at equimolar doses (in words)", "setting": "[4]; 33 μmol/kg/day, A 8.9, B 7.5, C 8.0 mg/kg", "value": "shows the highest antineoplastic effect"},
      {"measurement": "tumor growth, dose dependence and inhibition (in words)", "setting": "[4]; FIG. 4, 7.5, 10, 12.5 mg/kg intragastrally, 5 times/week for 5 weeks", "value": "affects tumor growth in a dose-dependent manner with almost complete tumor growth inhibition in the highest dose group"},
      {"measurement": "tumor growth (in words)", "setting": "[5]; 7.0 mg/kg/day", "value": "completely inhibited further growth of colon carcinoma"},
      {"measurement": "T/C", "setting": "[5]; 7.0 mg/kg/day, gastric tube, 10 weeks", "value": 11.1, "unit": "%"},
      {"measurement": "tumor growth inhibition (in words)", "setting": "[5]; 11.9 mg/kg", "value": "the growth inhibition is much less"},
      {"measurement": "T/C", "setting": "[5]; 11.9 mg/kg, gastric tube, 10 weeks", "value": "about 5%"},
      {"measurement": "antineoplastic effect (in words)", "setting": "[5]; gastric tube", "value": "very efficient"}
    ]},
    {"smiles": "CNc1ccc(C(=O)Nc2ccccc2N)cc1", "note": "[Compound C, 4-Methylamino-N-(2'-aminophenyl)-benzamide, reference compound]", "values": [
      {"measurement": "IC50", "setting": "L1210 tumor cells", "value": 4.04, "unit": "µg/mL"}
    ]},
    {"smiles": "Nc1ccc(C(=O)Nc2ccccc2N)cc1", "note": "[Compound B, 4-Amino-N-(2'-aminophenyl)-benzamide, reference compound]", "values": [
      {"measurement": "IC50", "setting": "L1210 tumor cells", "value": 2.78, "unit": "µg/mL"},
      {"measurement": "IC50", "setting": "[1]", "value": 0.69, "unit": "µg/mL"},
      {"measurement": "half-life", "setting": "[3]; rat, in vivo, po, 10 mg/kg", "value": "~0.25", "unit": "h"},
      {"measurement": "tumor growth (in words)", "setting": "[5]; 5.9 mg/kg/day", "value": "arrest of tumor growth"},
      {"measurement": "relative median tumor volume T/C", "setting": "[5]; 5.9 mg/kg/day=26 μmol/kg/day, gastric tube, 10 weeks", "value": 10.6, "unit": "%"},
      {"measurement": "antineoplastic effect (in words)", "setting": "[5]; gastric tube", "value": "very efficient"}
    ]}
  ]
}
